13 molecules from PubChem BioAssay (NCI) can be followed below.

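Results reflect a 48-hour exposure of cells in 96-well plates to compound at five concentrations. TGI: total growth inhibition.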 A value given as a limit tells only on which side of the number the result lay.

Holding throughout (assay): inhibition of tumour cell growth, NCI panel, 48 h
Test [1] relates to A549 NSCLC.
The subject of test [2] is KM12 colon.
Test [3] relates to MOLT-4 leukemia.
The subject of test [4] is NCI-H522 lung.
The subject of test [5] is OVCAR-3 ovarian.
Test [6] relates to OVCAR-8 ovarian.
The test system of test [7] is SF-295 CNS.
For test [8], the system named is SK-MEL-5 melanoma.
In test [9] the test system is SK-OV-3 ovarian.
The subject of test [10] is SNB-75 CNS.

Turning to `OCC1OC(n2cnc3c(Cl)nc(Nc4ccc(Cl)c(Cl)c4)nc32)CC1O` (stereo not given), the TGI is over 50 µM in [1]; 17.7 µM in test [2]; 12.5 µM in [3]; 18.1 µM in test [4]; 46.1 µM in test [5]; 22.6 µM in test [6]. Also, the TGI in [7] came out at 19.3 µM; in test [8], 16.9 µM; in test [9] it was 33.4 µM; in test [10] it was 42.2 µM.

On to `NS(=O)(=O)c1ccc(NC(=O)c2ccc3nc4ccccc4c(Nc4ccc(S(N)(=O)=O)cc4)c3c2)cc1`, for which the TGI in test [1], in [2], in test [3], in [4], in [5] and in test [6] was over 100 µM each time. Besides, the TGI in [7], in test [8], in test [9] and in test [10] was over 100 µM each time.

Take `COc1ccc(C=O)cc1OS(=O)(=O)C(F)(F)C(F)(F)C(F)(F)C(F)(F)F`: the TGI was over 100 µM in test [1]; over 74.4 µM in [2]; over 20 µM in test [3]; over 60.1 µM in [4]; over 69.2 µM in test [5]; over 100 µM in [6]. Besides, the TGI is 53 µM in test [7], 30.8 µM in test [8], over 90.2 µM in test [9] and over 90.4 µM in test [10].

Regarding `C=C(C)COc1cc(NC(=S)OC(C)C)ccc1Cl`, the TGI worked out at 25.8 µM in test [1]; 65.7 µM in test [2]; 34.3 µM in test [3]; 29.1 µM in [4]; 29.6 µM in test [5]; 30.7 µM in [6]. Moreover, the TGI in [7] amounted to 29.3 µM; in test [8] it was 38.4 µM; in [9], 38.1 µM; in [10], 29.8 µM.

For `O=C1N[C@H](C(=O)O)[C@@H](c2ccc(OCc3ccccc3)cc2)O1`, the TGI was over 100 µM in test [1]; over 100 µM in test [2]; over 100 µM in [3]; over 100 µM in test [4]; over 100 µM in test [5]; 45.8 µM in test [6]. Besides, the TGI in [7] was 79.6 µM; in test [8], over 100 µM; in test [9] it was over 100 µM; in test [10] it was 28 µM.

As to `Nc1ccc(C2SCC(=O)N2NS(=O)(=O)c2cccc(C(=O)O)c2)cc1` (stereo not given), the TGI in test [1], in test [2], in test [3], in test [4], in test [5] and in test [6] was over 100 µM in each case. Moreover, the TGI in test [7], in test [8], in test [9] and in test [10] was over 100 µM in each case.

For the molecule `CSC1=Nc2ccccc2N=C(c2ccccc2)C1`, the TGI in test [1], in test [2], in [3], in test [4], in test [5] and in test [6] was over 100 µM in each case. Also, the TGI in test [7], in test [8], in test [9] and in [10] was over 100 µM in each case.

For `CC(C)C(=O)/C=C/c1c(Cl)cccc1Cl`, the TGI in [1] was 21.9 µM; in [2], 11.9 µM; in [3], over 100 µM; in test [4], 3.11 µM; in test [5], 6.56 µM; in test [6], 13.6 µM. In addition, the TGI in test [7] was 24.3 µM; in [8], 18.2 µM; in test [9] it was 9.27 µM; in [10], 8.38 µM.

Take `CC(=O)OCC1OC(O[C@H]2C=C[C@@H](C(=O)OCc3ccccc3)n3c(=O)n(-c4ccccc4)c(=O)n32)C(OC(C)=O)C(OC(C)=O)C1OC(C)=O` (stereo not given in full): the TGI in test [1] came out at 35.3 µM; in [2] it was 12.2 µM; in test [3], 5.72 µM; in test [4] it was 2.83 µM; in test [5], 3.18 µM; in test [6] it was 7.41 µM. In addition, the TGI in [7] was 25.3 µM; in test [8], 5.66 µM; in test [9], 33.6 µM; in test [10], 23.5 µM.

With `COC(=O)[C@H](Cc1ccccc1)NC(=O)N(CCNC(=O)OC(C)(C)C)c1ccccc1`, the TGI in [1], in test [2], in test [3], in [4], in [5] and in test [6] was over 100 µM throughout. The TGI in test [7], in test [8], in test [9] and in test [10] was over 100 µM in each case.

`COc1ccc2nc3cc(Cl)ccc3c(NCCCCCC(=O)NC(COc3ccc4ccc5cccnc5c4n3)COc3ccc4ccc5cccnc5c4n3)c2c1`: the TGI in test [1] is 50.1 µM; in [2] it was 85.5 µM; in [3], 12.7 µM; in test [4], 81.1 µM; in [5] it was over 100 µM; in test [6], over 100 µM. The TGI in test [7] was over 100 µM; in test [8], 30.4 µM; in test [9], over 100 µM; in test [10], 35.4 µM.

On to `CN(C)CC(C)(C)CN1c2ccccc2Sc2ccccc21`, for which the TGI in test [1] worked out at 29.3 µM; in test [2], 25.8 µM; in test [3], 20.8 µM; in test [4] it was 25.9 µM; in test [5] it was 24.3 µM; in [6] it was 28.6 µM. Moreover, the TGI in test [7] is 26.8 µM; in test [8], 29.4 µM; in [9], 26 µM; in test [10], 18 µM.

On to `O=c1c2cc([N+](=O)[O-])ccc2n2n1CCCCC2`, for which the TGI in test [1], in [2], in [3], in [4], in test [5] and in test [6] was over 100 µM each time. Moreover, the TGI in [7], in test [8], in test [9] and in test [10] was over 100 µM each time.
